Test results from US20230159489A1, “PHD INHIBITOR COMPOUNDS, COMPOSITIONS, AND USE” (Akebia Therapeutics, Inc., priority 2020, published 2023).
pIC50: −log10 of the molar value.

Columns and labels:
[1] = molecular target: T1, full-length human PHD1 (Homo sapiens, UniProt Q96KS0); assay: TR-FRET assay, enzymatic IC50 against PHD1; assay type: biochemical; also: 15 nM PHD1
T1 construct: FLAG (N); purchased Active Motif 81064; host or cells: baculovirus expression system
Description: PHD1 was expressed in a baculovirus expression system as the full-length protein (NCBI accession number NP_542770.2) with an N-terminal FLAG tag (molecular weight 44.9 kDa).

[2] = molecular target: T2, full-length human PHD3 (Homo sapiens, UniProt Q9H6Z9); assay: TR-FRET assay, enzymatic IC50 against PHD3; assay type: biochemical; also: 35 nM PHD3
T2 construct: 6-His (N); purchased Active Motif 81033; host or cells: E. coli
Description: Recombinant human PHD3 protein (molecular weight 31.1 kDa) was purchased from Active Motif (Carlsbad, Calif., USA). It was expressed in E. coli as the full-length protein (NCBI accession number NP_071356.1) with an N-terminal 6-His tag (catalog #81033, Lot #24417001).

[3] = molecular target: full-length human PHD2 (Homo sapiens, UniProt Q9GZT9); assay: TR-FRET assay, enzymatic IC50 against PHD2
Chain of full-length human PHD2 (Q9GZT9 whole entry): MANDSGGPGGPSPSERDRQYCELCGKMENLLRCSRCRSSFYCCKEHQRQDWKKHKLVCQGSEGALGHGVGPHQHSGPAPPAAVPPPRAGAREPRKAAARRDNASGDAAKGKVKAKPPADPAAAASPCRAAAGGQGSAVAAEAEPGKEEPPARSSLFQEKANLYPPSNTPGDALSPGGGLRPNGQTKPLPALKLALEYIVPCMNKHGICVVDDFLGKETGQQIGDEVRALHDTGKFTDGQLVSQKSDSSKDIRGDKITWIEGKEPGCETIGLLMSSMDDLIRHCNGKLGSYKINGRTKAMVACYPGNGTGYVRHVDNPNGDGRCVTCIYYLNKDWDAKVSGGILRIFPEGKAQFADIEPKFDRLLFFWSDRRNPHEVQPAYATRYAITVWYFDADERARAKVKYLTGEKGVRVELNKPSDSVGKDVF

T1 sequence (Q96KS0 whole entry): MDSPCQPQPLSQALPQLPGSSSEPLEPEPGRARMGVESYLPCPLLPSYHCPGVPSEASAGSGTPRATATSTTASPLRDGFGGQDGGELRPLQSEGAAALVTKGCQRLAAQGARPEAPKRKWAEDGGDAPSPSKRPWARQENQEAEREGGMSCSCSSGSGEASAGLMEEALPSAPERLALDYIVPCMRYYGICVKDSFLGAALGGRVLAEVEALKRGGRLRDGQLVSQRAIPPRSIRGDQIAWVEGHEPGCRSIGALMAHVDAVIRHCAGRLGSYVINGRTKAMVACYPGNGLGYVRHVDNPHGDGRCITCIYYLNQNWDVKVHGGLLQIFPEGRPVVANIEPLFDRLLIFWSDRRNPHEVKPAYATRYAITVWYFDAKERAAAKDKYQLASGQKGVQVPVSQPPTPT
T2 sequence (Q9H6Z9 whole entry): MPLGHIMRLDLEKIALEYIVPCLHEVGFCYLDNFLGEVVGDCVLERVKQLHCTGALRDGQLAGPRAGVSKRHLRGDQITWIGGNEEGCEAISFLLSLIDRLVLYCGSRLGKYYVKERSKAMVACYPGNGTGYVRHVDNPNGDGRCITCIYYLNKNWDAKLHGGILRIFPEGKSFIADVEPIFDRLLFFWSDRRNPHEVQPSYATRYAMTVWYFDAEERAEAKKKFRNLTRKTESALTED

Row | pIC50 [1] | pIC50 [2] | pIC50 [3] | SMILES
1 | > 7.00 | 6.00 to 7.00 | > 7.00 | CCC(=O)Nc1ccc(-n2nc(C)c(-c3ccc(C#N)cc3)c2O)nc1 [Compound 9, N-(6-(4-(4-cyanophenyl)-5-hydroxy-3-methyl-1H-pyrazol-1-yl)pyridin-3-yl)propionamide]
2 | > 7.00 | 6.00 to 7.00 | > 7.00 | Cc1nn(-c2ccc(C(=O)C(C)C)cn2)c(O)c1-c1ccc(C#N)cc1 [Compound 10, 4-(5-hydroxy-1-(5-isobutyrylpyridin-2-yl)-3-methyl-1H-pyrazol-4-yl)benzonitrile]
3 | > 7.00 | > 7.00 | > 7.00 | Cc1nn(-c2ccc(S(N)(=O)=O)cn2)c(O)c1-c1ccc(C#N)cc1 [Compound 11, 6-(4-(4-cyanophenyl)-5-hydroxy-3-methyl-1H-pyrazol-1-yl)pyridine-3-sulfonamide]
4 | > 7.00 | > 7.00 | > 7.00 | Cc1nn(-c2ccc([S+](C)[O-])cn2)c(O)c1-c1ccc(C#N)cc1 (stereo not drawn) [Compound 12, 4-(5-hydroxy-3-methyl-1-(5-(methylsulfinyl)pyridin-2-yl)-1H-pyrazol-4-yl)benzonitrile]
5 | > 7.00 | 6.00 to 7.00 | > 7.00 | Cc1nn(-c2ccc(S(C)(=N)=O)cn2)c(O)c1-c1ccc(C#N)cc1 (stereo not drawn) [Compound 13, 4-(5-hydroxy-3-methyl-1-(5-(S-methylsulfonimidoyl)pyridin-2-yl)-1H-pyrazol-4-yl)benzonitrile]
6 | > 7.00 | > 7.00 | > 7.00 | CN=S(C)(=O)c1ccc(-n2nc(C)c(-c3ccc(C#N)cc3)c2O)nc1 (stereo not drawn) [Compound 15, 4-(1-(5-(N,S-dimethylsulfonimidoyl)pyridin-2-yl)-5-hydroxy-3-methyl-1H-pyrazol-4-yl)benzonitrile]
7 | > 7.00 | > 7.00 | > 7.00 | Cc1nn(-c2ccc(C(=O)NS(C)(=O)=O)cn2)c(O)c1-c1ccc(C#N)cc1 [Compound 27, 6-(4-(4-cyanophenyl)-5-hydroxy-3-methyl-1H-pyrazol-1-yl)-N-(methylsulfonyl)nicotinamide]
8 | > 7.00 | > 7.00 | > 7.00 | Cc1nn(-c2ccc(S(=N)(=O)C3CCC3)cn2)c(O)c1-c1ccc(C#N)cc1 (stereo not drawn) [Compound 34, 4-(1-(5-(cyclobutanesulfonimidoyl)pyridin-2-yl)-5-hydroxy-3-methyl-1H-pyrazol-4-yl)benzonitrile]
9 | > 7.00 | > 7.00 | > 7.00 | Cc1nn(-c2ccc(S(=N)(=O)C3CCCC3)cn2)c(O)c1-c1ccc(C#N)cc1 (stereo not drawn) [Compound 35, 4-(1-(5-(cyclopentanesulfonimidoyl)pyridin-2-yl)-5-hydroxy-3-methyl-1H-pyrazol-4-yl)benzonitrile]
10 | > 7.00 | 6.00 to 7.00 | > 7.00 | Cc1cc(-n2nc(C)c(-c3ccc(C#N)cc3)c2O)ncc1P(C)(C)=O [Compound 36, 4-(1-(5-(dimethylphosphoryl)-4-methylpyridin-2-yl)-5-hydroxy-3-methyl-1H-pyrazol-4-yl)benzonitrile]
11 | 6.00 to 7.00 | 5.00 to 6.00 | 6.00 to 7.00 | Cc1nn(-c2ccc(S(C)(=O)=O)cn2)c(O)c1-c1ccc(C#N)cn1 [Compound 44, 6-(5-hydroxy-3-methyl-1-(5-(methylsulfonyl)pyridin-2-yl)-1H-pyrazol-4-yl)nicotinonitrile]
12 | > 7.00 | > 7.00 | > 7.00 | Cc1nn(-c2ccc(NS(=O)(=O)CC(=O)O)cn2)c(O)c1-c1ccc(C#N)cc1 [Compound 55, 2-(N-(6-(4-(4-cyanophenyl)-5-hydroxy-3-methyl-1H-pyrazol-1-yl)pyridin-3-yl)sulfamoyl)acetic acid]
13 | > 7.00 | > 7.00 | > 7.00 | Cc1nn(-c2ccc([S@@](=N)(=O)C3CC3)cn2)c(O)c1-c1ccc(C#N)cc1 [Compound 56, (S)-4-(1-(5-(cyclopropanesulfonimidoyl)pyridin-2-yl)-5-hydroxy-3-methyl-1H-pyrazol-4-yl)benzonitrile]
14 | > 7.00 | 6.00 to 7.00 | > 7.00 | Cc1nn(-c2ccc(S(C)(=O)=NC#N)cn2)c(O)c1-c1ccc(C#N)cc1 (stereo not drawn) [Compound 58, N-((6-(4-(4-cyanophenyl)-5-hydroxy-3-methyl-1H-pyrazol-1-yl)pyridin-3-yl)(methyl)(oxo)-λ^6-sulfaneylidene)cyanamide]
